The source of these data is PMC6255974 (Frontiers in Pharmacology, 2018).

Structures can show the parent of a compound that is named as a salt.

For series [1], the target named is T1, human adult muscle nicotinic acetylcholine receptor αβεδ (Homo sapiens, UniProt P02708+P11230+Q04844+Q07001).
T1 construct: expressed in transfected cells; host or cells: Xenopus laevis oocytes injected with cRNA (cDNAs in pRBG4, gifts of A. G. Engel and F. Grassi)
Description: ACh-evoked currents at adult muscle nAChR in Xenopus oocytes, two-electrode voltage clamp. Format: cell-based. The settings on record: read-out: IC50 of block of ACh-evoked currents. The text has this:
The deviations are represented by the standard error of the mean (SEM).

Details of series [2]: method as in Dieterich et al., 1984. The settings on record: humans; oral 2 × 260 mg quinine sulfate; ref Dieterich et al., 1984; cited from earlier work.
In series [3] the test system is neuronal rat α9α10 nAChRs. On the set-up: method as in Ballestero et al., 2005. The settings on record: ref Ballestero et al., 2005; cited from earlier work.
In series [4] the target is human homomeric 5HT3A-receptors. On the set-up: method as in Thompson and Lummis, 2008. As to conditions: ref Thompson and Lummis, 2008; cited from earlier work.
Series [5] has as its target human heteromeric 5HT3AB-receptors. On the set-up: method as in Thompson and Lummis, 2008. The settings on record: ref Thompson and Lummis, 2008; cited from earlier work.
The target in a further series is human GABA(A)-receptors. On the set-up: method as in Thompson and Lummis, 2008. The settings on record: ref Thompson and Lummis, 2008; cited from earlier work.
The test system of series [6] is recombinant muscle receptor expressed in HEK293 cells. The settings on record: concentrations up to 30 μM; ref Sieb et al., 1996; cited from earlier work.

T1 sequence (P02708 21-457): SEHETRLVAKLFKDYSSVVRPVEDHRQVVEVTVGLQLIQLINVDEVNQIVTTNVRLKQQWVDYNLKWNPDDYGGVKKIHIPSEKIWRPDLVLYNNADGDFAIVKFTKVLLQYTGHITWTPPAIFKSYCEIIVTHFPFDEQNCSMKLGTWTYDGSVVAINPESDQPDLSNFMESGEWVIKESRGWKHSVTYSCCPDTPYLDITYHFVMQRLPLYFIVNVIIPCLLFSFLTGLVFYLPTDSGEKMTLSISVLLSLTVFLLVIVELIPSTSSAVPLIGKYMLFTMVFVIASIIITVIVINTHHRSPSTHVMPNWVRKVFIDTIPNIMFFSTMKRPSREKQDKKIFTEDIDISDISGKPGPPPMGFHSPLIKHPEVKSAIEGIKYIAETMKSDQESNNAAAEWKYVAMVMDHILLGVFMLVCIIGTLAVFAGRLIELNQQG
T1 sequence (P11230 24-501): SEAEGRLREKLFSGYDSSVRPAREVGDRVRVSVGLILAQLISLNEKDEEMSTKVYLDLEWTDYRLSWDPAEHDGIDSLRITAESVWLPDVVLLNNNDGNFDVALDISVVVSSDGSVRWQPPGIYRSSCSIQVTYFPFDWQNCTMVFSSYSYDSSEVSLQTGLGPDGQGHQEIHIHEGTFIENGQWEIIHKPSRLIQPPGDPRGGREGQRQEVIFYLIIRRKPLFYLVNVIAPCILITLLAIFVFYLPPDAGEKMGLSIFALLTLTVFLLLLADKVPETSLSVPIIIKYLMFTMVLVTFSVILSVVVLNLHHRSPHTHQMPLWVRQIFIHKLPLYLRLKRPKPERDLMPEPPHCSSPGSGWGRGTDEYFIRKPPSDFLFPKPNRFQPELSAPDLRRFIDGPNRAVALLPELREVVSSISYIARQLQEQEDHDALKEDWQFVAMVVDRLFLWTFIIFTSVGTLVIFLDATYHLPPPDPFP
T1 sequence (Q07001 22-517): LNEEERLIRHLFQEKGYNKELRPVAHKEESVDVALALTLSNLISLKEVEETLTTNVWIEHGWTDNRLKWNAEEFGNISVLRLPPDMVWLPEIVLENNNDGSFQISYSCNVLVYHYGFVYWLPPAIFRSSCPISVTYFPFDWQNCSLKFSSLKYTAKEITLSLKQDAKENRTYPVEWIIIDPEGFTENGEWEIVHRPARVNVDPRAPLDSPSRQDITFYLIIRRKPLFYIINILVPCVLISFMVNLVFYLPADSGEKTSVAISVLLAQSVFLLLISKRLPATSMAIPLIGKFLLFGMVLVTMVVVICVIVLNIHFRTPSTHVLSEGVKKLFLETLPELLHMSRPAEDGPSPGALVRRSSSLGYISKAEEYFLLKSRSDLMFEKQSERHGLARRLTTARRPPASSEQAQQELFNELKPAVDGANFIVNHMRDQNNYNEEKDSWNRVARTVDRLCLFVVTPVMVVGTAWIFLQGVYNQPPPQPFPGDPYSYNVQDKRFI
T1 sequence (Q04844 21-493): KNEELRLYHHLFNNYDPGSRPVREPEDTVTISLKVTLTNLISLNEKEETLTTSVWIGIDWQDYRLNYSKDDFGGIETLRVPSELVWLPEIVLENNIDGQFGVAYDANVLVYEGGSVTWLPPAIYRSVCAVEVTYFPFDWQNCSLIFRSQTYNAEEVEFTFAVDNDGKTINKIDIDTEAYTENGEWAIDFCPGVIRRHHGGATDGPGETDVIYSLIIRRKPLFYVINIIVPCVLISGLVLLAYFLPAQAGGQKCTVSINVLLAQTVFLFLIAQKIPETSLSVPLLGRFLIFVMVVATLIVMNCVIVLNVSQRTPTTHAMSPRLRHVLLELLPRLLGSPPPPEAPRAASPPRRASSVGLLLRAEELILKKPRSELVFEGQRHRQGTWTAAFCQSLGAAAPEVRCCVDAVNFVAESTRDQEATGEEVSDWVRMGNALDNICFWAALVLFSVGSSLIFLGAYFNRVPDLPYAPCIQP

For orientation: IC50 means the point on the concentration scale where inhibition reaches its midpoint. `CCN(CC)CCCC(C)Nc1ccnc2cc(Cl)ccc12` (stereo not shown) [chloroquine]: the IC50 in series [1] came out at 2.22 µM.
Turning to `C=C[C@H]1C[N@@]2CC[C@H]1C[C@H]2[C@H](O)c1ccnc2ccc(OC)cc12` [quinine sulfate], the “Time of peak plasma concentration after intake” value in series [2] is “about 2 h”.
As for `C=C[C@H]1C[N@@]2CC[C@H]1C[C@H]2[C@H](O)c1ccnc2ccc(OC)cc12` [quinine], the IC50 in series [3] was approximately 1 µM; in series [4], approximately 1 µM; in series [5] it was approximately 16 µM; at human GABA(A)-receptors, approximately 1600 µM. Besides, in series [6], the “Inhibition of the binding of α-bungarotoxin” value is “could not inhibit”.
